From publication PMC9497135, “Structure-Based Study to Overcome Cross-Reactivity of Novel Androgen Receptor Inhibitors” (Cells, 2022)
Changes are numbered by the printed parent chain.

Legend:
[1] = test system: prostate-specific antigen (PSA) expression in LNCaP cells; test: PSA assay in LNCaP cells; assay type: cell-based; settings: Homo sapiens, 72 h, with R1881, 3 days
Description: The PSA assay was performed in parallel with the previous reporter eGFP assay and using the same plates. After 3 days incubation of LNCAP cells with R1881 and the test compound, 150 µL of the media was taken from each well and added to 150 µL of PBS. PSA levels were then evaluated using the Cobas e 411 analyzer instrument (Roche Diagnostics) according to the manufacturer’s instructions.

T878A-AR mutant = target: T1, T878A-AR mutant (Homo sapiens, UniProt P10275, T878A); test: Luciferase reporter assay, PC3 cells transfected with T878A-AR; assay type: cell-based; settings: in the presence and absence of R1881
T1 construct: Full-length human wild type AR was cloned into pcDNA3.1 expression plasmid; expressed in transfected cells; host or cells: PC3
T1 sequence (P10275 1-920 T878A): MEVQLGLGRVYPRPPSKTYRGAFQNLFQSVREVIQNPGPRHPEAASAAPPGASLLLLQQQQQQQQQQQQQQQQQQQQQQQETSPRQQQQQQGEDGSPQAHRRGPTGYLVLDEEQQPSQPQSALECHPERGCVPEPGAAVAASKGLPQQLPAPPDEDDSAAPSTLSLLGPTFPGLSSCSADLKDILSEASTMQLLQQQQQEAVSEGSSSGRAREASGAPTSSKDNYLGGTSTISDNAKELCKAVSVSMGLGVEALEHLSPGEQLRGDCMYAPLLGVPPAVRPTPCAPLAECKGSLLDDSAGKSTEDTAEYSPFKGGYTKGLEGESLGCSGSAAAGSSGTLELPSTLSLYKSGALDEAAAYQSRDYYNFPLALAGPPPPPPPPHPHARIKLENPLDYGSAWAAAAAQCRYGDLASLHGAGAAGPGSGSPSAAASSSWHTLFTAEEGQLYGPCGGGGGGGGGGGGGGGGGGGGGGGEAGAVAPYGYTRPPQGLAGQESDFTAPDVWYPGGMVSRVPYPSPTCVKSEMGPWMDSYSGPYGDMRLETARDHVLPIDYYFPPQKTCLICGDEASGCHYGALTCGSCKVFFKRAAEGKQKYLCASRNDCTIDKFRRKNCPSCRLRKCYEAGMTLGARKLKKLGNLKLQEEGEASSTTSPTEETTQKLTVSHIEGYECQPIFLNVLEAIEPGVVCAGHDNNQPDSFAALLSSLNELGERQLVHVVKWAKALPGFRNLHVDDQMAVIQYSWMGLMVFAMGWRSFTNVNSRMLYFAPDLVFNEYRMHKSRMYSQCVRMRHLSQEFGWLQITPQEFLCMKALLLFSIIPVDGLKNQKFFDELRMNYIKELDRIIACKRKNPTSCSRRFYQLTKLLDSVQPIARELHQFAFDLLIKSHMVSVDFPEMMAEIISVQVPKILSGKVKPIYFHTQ
Description: Full-length human wild type AR was cloned into pcDNA3.1 expression plasmid (Invitrogen, Waltham, MA, USA) with a CMV promoter. The T878A mutant (T878A-AR) was generated with the Quikchange Mutagenesis Kit (Stratagene, San Diego, CA, USA) using hARWT plasmid as a template. Androgen-starved PC3 cells were seeded in 96-well plates (3000 cells/well) in RPMI 1640 + 5% CSS for 24 h followed by transfection with 50 ng of hARWT or hART878A along with 50 ng of ARR3tk-luciferase reporter construct (100 ng total plasmid DNA) and 0.3 µL/well TransIT20/20 transfection reagent (TT2020, Mirus, Madison, Wisconsin, WI, USA) for 48 h. […] Cell lysis was carried out with 60 µL 1X passive lysis buffer/well (Promega, Madison, Wisconsin, WI, USA). The luminescence from 20 µL of cell lysate and 50 µL of Luciferase assay reagent (Promega, Madison, Wisconsin, WI, USA) was recorded on a TECAN M200pro plate reader.

wild type AR LBD = target: T2, wild type AR LBD (Homo sapiens, UniProt P10275); test: Biolayer interferometry (BLI), wild type LBD; assay type: binding
T2 construct: made in house; host or cells: E. coli BL21-DE3 co-transformed with pBirACm
T2 sequence (P10275 669-900 limits assumed): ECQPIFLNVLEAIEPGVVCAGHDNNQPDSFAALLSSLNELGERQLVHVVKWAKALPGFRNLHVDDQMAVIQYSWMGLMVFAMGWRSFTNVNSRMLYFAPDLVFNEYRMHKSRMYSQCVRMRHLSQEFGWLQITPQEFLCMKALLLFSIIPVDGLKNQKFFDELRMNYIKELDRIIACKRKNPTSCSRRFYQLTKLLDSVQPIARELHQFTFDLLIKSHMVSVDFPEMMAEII
Description: (§1) The direct reversible interaction between small molecules and the AR was quantified by BLI using OctetRED (ForteBio, Fremont, CA, USA). The wild type and T878A-LDB in fusion with an N-terminal (His)6-avidin ([…]) tag were expressed in E. coli BL21-DE3 cells co-transformed with pBirACm plasmid (Avidity), which expresses a biotin ligase leading to the biotynilation of the avidin tag on the LBD. Cells were grown in LB media at 37 °C to an OD600nm = 0.5 and then induced with 0.5 mM isopropyl-β-D-thiogalactoside. A measure of 20 µM of dihydrotestosterone (DHT) and 0.15 mM biotin were added and the cells were incubated at 16 °C for 18 to 20 h. Cells were then resuspended and lysed in buffer containing 500 mM Li2SO4, 50mM HEPES pH7.2, 10% Glycerol, 0.1% Octyl-beta-Glucoside, 20 µM of DHT, 5 mM β-mercaptoethanol, 10 mM imidazole and 0.1 mM phenylmethanesulfonyl fluoride. […] After an overnight dialysis against 150 mM Li2SO4, 50 mM HEPES pH7.2, 10% Glycerol, 0.1% Octyl-beta-Glucoside, 20 µM of DHT and 0.2 mM tris(2-carboxyethyl)phosphine, purified proteins at 50 µg/mL were bound to the super-streptavidin sensors overnight at 4 °C. The assay was performed at 20 °C in the dialysis buffer supplemented with 5% dimethyl sulfoxide (DMSO) which was also used as our reference measurement.

T878A AR LBD = target: T3, T878A AR LBD (Homo sapiens, UniProt P10275, T878A); test: Biolayer interferometry (BLI), T878A LBD; assay type: binding
T3 construct: made in house; host or cells: E. coli BL21-DE3 co-transformed with pBirACm
T3 sequence (P10275 669-900 T878A limits assumed): T2 sequence (P10275 669-900 limits assumed) with T210A
Description: as §1

[2] = test system: endogenous wild type AR in R1-AD1 cells; test: AR transcriptional activity in R1-AD1 cells; assay type: cell-based, human; settings: 0.1 nM R1881

`COc1c(F)cccc1-c1csc(N2CCOCC2)n1` [VPC14368, 4-(4-(3-fluoro-2-methoxyphenyl)thiazol-2-yl)morpholine] was tested, and the IC50 [1] was 130 nM, the “Concentration above which transcriptional activation of the T878A AR mutant is induced” value (T878A-AR mutant) was “higher than 0.4 µM” and the “Direct binding to wild-type LBD by BLI” value (wild type AR LBD) was “confirmed at high concentrations and in a concentration-dependent manner”. For the same compound, the “Concentration at which binding is seen (BLI)” value (wild type AR LBD; Figure 2, 50-300 µM tested) was “above 100 µM”, the “Direct binding to T878A LBD by BLI” value (T878A AR LBD) was “confirmed at high concentrations and in a concentration-dependent manner” and the “Concentration at which binding is seen (BLI)” value (T878A AR LBD; Figure 2, 50-300 µM tested) was “above 100 µM”. The “Agonistic effect in R1-AD1 cells” value [2] was “not observed”.
